ChEMBL document CHEMBL1201862, “PubChem BioAssay data set” (2004)
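Five compound concentrations were applied to cells in 96-well plates for 48 hours; endpoints were derived by simple linear interpolation of the resulting dose-response curve. At the GI50, growth is halved.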 Activity calls are given as the source filed them. No stated cut-off is given here; in the data, active = GI50 up to about 1.1 µM and inactive = higher.

Columns and labels:
Assay in all cases: DTP human tumour cell line panel, 48 h
[1] = tested on: SK-OV-3
[2] = tested on: CAKI-1
[3] = tested on: UACC-62
[4] = tested on: ACHN
[5] = tested on: NCI-H460
[6] = tested on: MDA-MB-435
[7] = tested on: HL-60
[8] = tested on: NCI-H226
[9] = tested on: MDA-N
[10] = tested on: A549
[11] = tested on: EKVX
[12] = tested on: TK-10
[13] = tested on: RXF 393
[14] = tested on: HOP-62
[15] = tested on: NCI/ADR-RES
[16] = tested on: SR
[17] = tested on: SK-MEL-2
[18] = tested on: Hs-578T
[19] = tested on: HOP-92
[20] = tested on: M14

SMILES | GI50 [1] | GI50 [2] | GI50 [3] | GI50 [4] | GI50 [5] | GI50 [6] | GI50 [7] | GI50 [8] | GI50 [9] | GI50 [10] | GI50 [11] | GI50 [12] | GI50 [13] | GI50 [14] | GI50 [15] | GI50 [16] | GI50 [17] | GI50 [18] | GI50 [19] | GI50 [20]
O=P(O)(CN1CCN(CP(=O)(O)c2ccccc2)CCN(CP(=O)(O)c2ccccc2)CC1)c1ccccc1 | > 100 µM (inactive) | 45.8 µM (inactive) | > 10 µM (inactive) | > 100 µM (inactive) | 36 µM (inactive) | 93.1 µM (inactive) | > 100 µM (inactive) | > 100 µM (inactive) | 67.8 µM (inactive) | 47.6 µM (inactive) | > 100 µM (inactive) | 92.5 µM (inactive) | 80 µM (inactive) | > 100 µM (inactive) | > 100 µM (inactive) |  |  |  |  | 
O=c1[nH]nc(-c2ccccc2)n1/N=C/c1cccc([N+](=O)[O-])c1 | 14.9 µM (inactive) | > 100 µM (inactive) | > 100 µM (inactive) | > 100 µM (inactive) | 91.6 µM (inactive) | > 100 µM (inactive) | > 100 µM (inactive) | > 100 µM (inactive) |  | > 100 µM (inactive) | > 100 µM (inactive) | > 100 µM (inactive) | 49.8 µM (inactive) | 28.7 µM (inactive) | 41.4 µM (inactive) | 77.8 µM (inactive) | > 100 µM (inactive) | > 100 µM (inactive) | > 100 µM (inactive) | > 100 µM (inactive)
COc1ccc(/C=N/Nc2nc3ccccc3c(=O)n2-c2ccccc2)c(OCc2ccccc2)c1 | > 100 µM (inactive) | 34.8 µM (inactive) | 70.6 µM (inactive) | > 100 µM (inactive) | > 100 µM (inactive) | > 100 µM (inactive) | > 100 µM (inactive) | > 100 µM (inactive) |  | > 100 µM (inactive) | 33.9 µM (inactive) | > 100 µM (inactive) | > 100 µM (inactive) | > 100 µM (inactive) | > 100 µM (inactive) | > 100 µM (inactive) | 0.0656 µM (active) |  | 19.3 µM (inactive) | 83.9 µM (inactive)
CC1=COC(C)(C=C(C#N)C#N)CC1 (stereo not given) | > 100 µM (inactive) |  | 57.7 µM (inactive) | > 100 µM (inactive) | > 100 µM (inactive) | 32.4 µM (inactive) | 21.1 µM (inactive) | > 100 µM (inactive) |  | > 100 µM (inactive) | > 100 µM (inactive) | > 100 µM (inactive) | > 100 µM (inactive) | > 100 µM (inactive) | 48.4 µM (inactive) | 31 µM (inactive) |  | 15.4 µM (inactive) | > 10 µM (inactive) | 78.5 µM (inactive)
N#Cc1cc2c(cc1Cl)Sc1nccn1S2(=O)=O | 4.47 µM (inactive) | 1.4 µM (inactive) | 2.55 µM (inactive) | 2.08 µM (inactive) | 9.53 µM (inactive) | 4.91 µM (inactive) | 3.08 µM (inactive) | 5.89 µM (inactive) |  | 12.8 µM (inactive) | 14.5 µM (inactive) | 13.5 µM (inactive) | 4.61 µM (inactive) | 3.38 µM (inactive) | 1.68 µM (inactive) | 1 µM (active) | 3.74 µM (inactive) | 2.68 µM (inactive) | 4.93 µM (inactive) | 0.619 µM (active)
Cc1ccc(C2(c3ccc(C)cc3)SC(=C(C#N)C#N)c3ccccc32)cc1 | > 100 µM (inactive) |  | 53 µM (inactive) | > 100 µM (inactive) | > 100 µM (inactive) | 5.31 µM (inactive) | 26.3 µM (inactive) | > 100 µM (inactive) |  | > 100 µM (inactive) | > 100 µM (inactive) | > 100 µM (inactive) | > 100 µM (inactive) | 31.4 µM (inactive) | 45.6 µM (inactive) | 27.6 µM (inactive) | 2.9 µM (inactive) | > 100 µM (inactive) | > 100 µM (inactive) | > 100 µM (inactive)
C=C(C)C12OC3(c4ccccc4)OC1C1C4OC4(CO)C(O)C4(O)C(=O)C(C)=CC4C1(O3)C(C)C2OC(=O)/C=C/C=C/c1ccccc1 (stereo not given) | 1.15 µM (inactive) | 0.504 µM (active) | 0.253 µM (active) | < 0.0005 µM (active) | < 0.0005 µM (active) | < 0.0005 µM (active) | < 0.0005 µM (active) | 0.228 µM (active) | < 0.0005 µM (active) | < 0.0005 µM (active) | 0.188 µM (active) | < 0.0005 µM (active) | 0.207 µM (active) | 0.551 µM (active) | 0.344 µM (active) | 0.122 µM (active) | 0.337 µM (active) |  | < 0.0005 µM (active) | 0.0853 µM (active)
CN(C)C(=O)Oc1ccc(-c2cn3cc(NC(=O)c4ccccc4)ccc3n2)cc1 | > 100 µM (inactive) | > 100 µM (inactive) | > 100 µM (inactive) | > 100 µM (inactive) | 73.3 µM (inactive) | 85.7 µM (inactive) |  | > 100 µM (inactive) | > 100 µM (inactive) | 83.4 µM (inactive) | > 100 µM (inactive) | > 100 µM (inactive) | > 100 µM (inactive) | > 100 µM (inactive) | > 100 µM (inactive) | 29.3 µM (inactive) | > 100 µM (inactive) |  | > 100 µM (inactive) | > 100 µM (inactive)
C[S+](C)CC(=O)c1ccc2c(c1)Sc1ccccc1O2 | 6.04 µM (inactive) | 4.39 µM (inactive) | 3.91 µM (inactive) | 5.78 µM (inactive) | 5.3 µM (inactive) | 0.923 µM (active) | 1.61 µM (inactive) | 5.16 µM (inactive) |  | 5.68 µM (inactive) | 3.44 µM (inactive) | 5.38 µM (inactive) | 3.78 µM (inactive) | 13.2 µM (inactive) | 6.55 µM (inactive) | 1.43 µM (inactive) | 3.4 µM (inactive) | 3.45 µM (inactive) | 3.74 µM (inactive) | 0.755 µM (active)
Cc1nc(Cl)nc(Cl)c1C | > 100 µM (inactive) |  |  | > 100 µM (inactive) | > 100 µM (inactive) | > 100 µM (inactive) | > 100 µM (inactive) | > 100 µM (inactive) |  | > 100 µM (inactive) | > 100 µM (inactive) | > 100 µM (inactive) | > 100 µM (inactive) | > 100 µM (inactive) | > 100 µM (inactive) | > 100 µM (inactive) | > 100 µM (inactive) | > 100 µM (inactive) |  | > 100 µM (inactive)
O=C(NC1=C(Cl)C(=O)c2ccccc2C1=O)C(=O)C(C(=O)c1ccc2ccccc2c1)C1OC(=O)c2ccccc21 (stereo not given) | 13.2 µM (inactive) | 6.34 µM (inactive) | 1.73 µM (inactive) | 7.29 µM (inactive) | 2.96 µM (inactive) | 1.7 µM (inactive) | 2.49 µM (inactive) | 0.986 µM (active) |  | 4.72 µM (inactive) | 12 µM (inactive) | 25.6 µM (inactive) | 4.49 µM (inactive) | 5.82 µM (inactive) |  | 3.31 µM (inactive) | 4.94 µM (inactive) | 6.25 µM (inactive) |  | 2.18 µM (inactive)
